Data on four molecules can be found in patent US20100056524A1, “Compound” (priority 2008, published 2010).

The structures appear in SMILES notation. Where a name gives a salt, the structure may show the parent alone. Read-outs that look alike come from different tables or passages of the source.

Common to all, as to type: biochemical
In one test the target is T1, PKBa (Homo sapiens, UniProt P31749, S473D).
T1 construct: protein kinase Bα[118-480][S473D]; His6; made in house; host or cells: insect Sf21 cells
Put plainly: PKBa protein kinase assay. To be noted: for remaining activity at 10 µM: 10 μM compound. The source says: (§1) All protein kinases were of human origin and encoded full length proteins, unless indicated otherwise. They were either expressed as glutathione S-transferase (GST) fusion proteins in Escherichia Coli or as hexahistidine (His6)-tagged proteins in insect Sf21 cells. GST fusion proteins were purified by affinity chromatography on glutathione-Sepharose, and His6-tagged proteins on nickel/nitriloacetate-agarose. The procedures for expressing some of the protein kinases used herein have been detailed previously.^8,9 The following sections outline the DNA vectors synthesised and the procedures used to express and purifying protein kinases that have not been reported previously.
The following kinases were expressed in Sf21 cells: Aurora B and Aurora C, extra-cellular signal-regulated kinase 8 (ERK8), microtubule affinity regulating kinase 3 (MARK3), protein kinase Bα[118-480][S473D], protein kinase Bβ (PKBβ[120-481][S474D], 3-phosphoinositide-dependent protein kinase-1 [52-556]
(§2) In order to produce activated forms of Aurora B and Aurora C, insect Sf21 cells were incubated for 1 h with the protein phosphatase inhibitor okadaic acid (50 nM). JNK isoforms were activated with MKK4 and MKK7, MNK2 with p38α MAPkinase; PKBα, PKBβ, with PDK1, and ERK1 with MKK1. To activate CDK2, bacterial pellets expressing cyclin A2 and CDK2 were mixed together, lyse and purified on glutathione Sepharose. The GST-tags were removed by cleavage with PreScission protease and the CDK2-cyclin A2 complex purified by chromatography on SP-Sepharose. It was then activated with CAK1/CDK7 followed by chromatography on nickel-nitrilotriacetate agarose to remove CAK1/CDK7, which binds to this column by virtue of its C-terminal His6 tag. All the other protein kinases were active as expressed.
(§3) All assays (25.5 μl) were carried out at room temperature (21° C.) and were linear with respect to time and enzyme concentration under the conditions used. Assays were performed for 30 min using Multidrop Micro reagent dispensers (Thermo Electron Corporation, Waltham, Mass. 02454, USA) in a 96-well format. The concentration of magnesium acetate in the assays was 10 mM and the [γ-33P] ATP (800 cpm/pmol) was used at 5, 20 or 50 μM as indicated, in order to be at or below the Km for ATP for each enzyme. Protein kinases assayed at 5 μM ATP were: —ERK1, ERK8, PKBα, MARK3, Aurora C. Protein kinases assayed at 20 μM ATP were: —JNK1, PDK1, CHK1, CHK2, CDK2 and Aurora B. Protein kinases assayed at 50 μM ATP were: —MNK2, IKKepsilon and TBK1.
(§4) The assays were initiated with MgATP, stopped by addition of 5 μl of 0.5 M orthophosphoric acid and spotted on to P81 filterplates using a unifilter harvester (PerkinElmer, Boston, Mass. 02118, USA). The IC50 values of inhibitors were determined after carrying out assays at 10 different concentrations of each compound.
(§5) Unless stated otherwise, enzymes were diluted in 50 mM Tris/HCl pH 7.5, 0.1 mM EGTA, 1 mg/ml BSA, 0.1% (v/v) 2-mercaptoethanol and assayed in 50 mM Tris/HCl pH 7.5, 0.1 mM EGTA, 0.1% (v/v) 2-mercaptoethanol.

Another test deals with T2, PIM3 (Homo sapiens, UniProt Q86V86).
T2 construct: All protein kinases were of human origin and encoded full length proteins, unless indicated otherwise; made in house
Put plainly: PIM3 protein kinase assay. To be noted: for remaining activity at 1 µM: 1 μM compound; for remaining activity at 10 µM: 10 μM compound; for residual kinase activity PIM3: 1 μm compound.
Excerpt: as §1, §3, §4, §5

Another test deals with T3, SYK (Homo sapiens, UniProt P43405).
T3 construct: All protein kinases were of human origin and encoded full length proteins, unless indicated otherwise; made in house
Put plainly: SYK protein kinase assay. To be noted: for remaining activity at 1 µM: 1 μM compound; for remaining activity at 10 µM: 10 μM compound; for residual kinase activity SYK: 1 μm compound.
Excerpt: as §1, §3, §4, §5

The target of another test is T4, CAMK1 (Homo sapiens, UniProt Q14012).
T4 construct: All protein kinases were of human origin and encoded full length proteins, unless indicated otherwise; made in house
Briefly: CAMK1 protein kinase assay. Conditions: for remaining activity at 1 µM: 1 μM compound; for remaining activity at 10 µM: 10 μM compound; for residual kinase activity CAMK1: 1 μm compound.
Excerpt: as §1, §3, §4, §5

A further test addresses T5, PAK4 (Homo sapiens, UniProt O96013).
T5 construct: All protein kinases were of human origin and encoded full length proteins, unless indicated otherwise; made in house
Put plainly: PAK4 protein kinase assay. Conditions: for remaining activity at 1 µM: 1 μM compound; for remaining activity at 10 µM: 10 μM compound; for residual kinase activity PAK4: 1 μm compound.
Excerpt: as §1, §3, §4, §5

A further test deals with T6, NEK2a (Homo sapiens, UniProt P51955).
T6 construct: All protein kinases were of human origin and encoded full length proteins, unless indicated otherwise; made in house
T6 sequence (P51955 1-445): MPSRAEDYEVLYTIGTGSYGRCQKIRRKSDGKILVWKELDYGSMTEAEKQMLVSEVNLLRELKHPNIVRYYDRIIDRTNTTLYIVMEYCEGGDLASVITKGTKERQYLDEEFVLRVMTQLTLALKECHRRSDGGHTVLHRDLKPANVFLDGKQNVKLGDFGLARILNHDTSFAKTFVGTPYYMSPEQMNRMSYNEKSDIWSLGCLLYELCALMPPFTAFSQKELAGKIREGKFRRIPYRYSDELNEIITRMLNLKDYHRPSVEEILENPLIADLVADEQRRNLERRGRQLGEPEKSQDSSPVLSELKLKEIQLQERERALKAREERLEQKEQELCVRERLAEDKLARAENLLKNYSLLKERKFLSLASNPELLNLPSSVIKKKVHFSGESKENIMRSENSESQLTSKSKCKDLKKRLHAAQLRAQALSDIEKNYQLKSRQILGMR
Put plainly: NEK2a protein kinase assay. Conditions: for remaining activity at 1 µM: 1 μM compound; for remaining activity at 10 µM: 10 μM compound; for residual kinase activity NEK2a: 1 μm compound.
Excerpt: as §1, §3, §4, §5

The target in another test is T7, JNK1 (Homo sapiens, UniProt P45983).
T7 construct: All protein kinases were of human origin and encoded full length proteins, unless indicated otherwise; made in house
Briefly: JNK1 protein kinase assay. Conditions: for remaining activity at 1 µM: 1 μM compound; for remaining activity at 10 µM: 10 μM compound; for residual kinase activity JNK1: 1 μm compound.
Excerpt: as §1, §2, §3, §4, §5

In a further test the target is T8, SGK1 (Homo sapiens, UniProt O00141, S422D).
T8 construct: All protein kinases were of human origin and encoded full length proteins, unless indicated otherwise; made in house
T8 sequence (O00141 60-431 S422D limits assumed): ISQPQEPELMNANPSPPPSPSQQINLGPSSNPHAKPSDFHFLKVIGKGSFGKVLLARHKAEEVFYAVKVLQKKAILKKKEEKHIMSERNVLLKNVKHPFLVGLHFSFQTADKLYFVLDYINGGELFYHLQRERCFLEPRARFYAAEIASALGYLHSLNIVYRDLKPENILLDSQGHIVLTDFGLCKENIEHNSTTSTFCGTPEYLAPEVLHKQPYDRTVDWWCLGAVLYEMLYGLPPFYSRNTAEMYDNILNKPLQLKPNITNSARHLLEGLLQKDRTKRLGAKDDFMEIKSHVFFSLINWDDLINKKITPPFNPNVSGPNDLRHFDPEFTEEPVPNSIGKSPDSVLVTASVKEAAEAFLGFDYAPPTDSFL
Briefly: SGK1 protein kinase assay. To be noted: for remaining activity at 1 µM: 1 μM compound; for remaining activity at 10 µM: 10 μM compound; for residual kinase activity SGK1: 1 μm compound.
Excerpt: as §1, §3, §4, §5

Where [1] appears, read: PKBa, 1 μM compound, 5 μM ATP, read-out: residual kinase activity.
[2] abbreviates: PKBa, 5 μM ATP, read-out: residual kinase activity.
The mark [3] stands for this setting: PIM3, read-out: residual kinase activity.
The mark [4] stands for this setting: SYK, read-out: residual kinase activity.
[5] abbreviates: CAMK1, read-out: residual kinase activity.
Setting [6] is: PAK4, read-out: residual kinase activity.
The mark [7] stands for this setting: NEK2a, read-out: residual kinase activity.
Setting [8] is: JNK1, 20 μM ATP, read-out: residual kinase activity.
Setting [9] is: SGK1, read-out: residual kinase activity.
[10] abbreviates: read-out: residual kinase activity PKBa.
[11] abbreviates: 1 μm compound, read-out: residual kinase activity PKBa.
Where [12] appears, read: read-out: residual kinase activity PIM3.
Setting [13] is: read-out: residual kinase activity SYK.
The mark [14] stands for this setting: read-out: residual kinase activity CAMK1.
Where [15] appears, read: read-out: residual kinase activity PAK4.
Setting [16] is: read-out: residual kinase activity NEK2a.
Setting [17] is: read-out: residual kinase activity JNK1.
[18] abbreviates: read-out: residual kinase activity SGK1.

T1 sequence (P31749 118-480 S473D): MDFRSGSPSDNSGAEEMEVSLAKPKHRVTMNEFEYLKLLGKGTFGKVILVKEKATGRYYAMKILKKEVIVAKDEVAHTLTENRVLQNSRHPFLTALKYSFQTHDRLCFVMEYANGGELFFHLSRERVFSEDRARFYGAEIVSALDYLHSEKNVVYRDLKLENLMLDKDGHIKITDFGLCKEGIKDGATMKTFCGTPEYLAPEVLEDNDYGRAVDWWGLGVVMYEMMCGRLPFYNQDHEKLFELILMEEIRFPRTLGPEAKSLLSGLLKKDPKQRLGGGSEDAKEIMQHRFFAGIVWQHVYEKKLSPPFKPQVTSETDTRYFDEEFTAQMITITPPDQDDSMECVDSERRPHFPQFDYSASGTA
T5 sequence (O96013 whole entry): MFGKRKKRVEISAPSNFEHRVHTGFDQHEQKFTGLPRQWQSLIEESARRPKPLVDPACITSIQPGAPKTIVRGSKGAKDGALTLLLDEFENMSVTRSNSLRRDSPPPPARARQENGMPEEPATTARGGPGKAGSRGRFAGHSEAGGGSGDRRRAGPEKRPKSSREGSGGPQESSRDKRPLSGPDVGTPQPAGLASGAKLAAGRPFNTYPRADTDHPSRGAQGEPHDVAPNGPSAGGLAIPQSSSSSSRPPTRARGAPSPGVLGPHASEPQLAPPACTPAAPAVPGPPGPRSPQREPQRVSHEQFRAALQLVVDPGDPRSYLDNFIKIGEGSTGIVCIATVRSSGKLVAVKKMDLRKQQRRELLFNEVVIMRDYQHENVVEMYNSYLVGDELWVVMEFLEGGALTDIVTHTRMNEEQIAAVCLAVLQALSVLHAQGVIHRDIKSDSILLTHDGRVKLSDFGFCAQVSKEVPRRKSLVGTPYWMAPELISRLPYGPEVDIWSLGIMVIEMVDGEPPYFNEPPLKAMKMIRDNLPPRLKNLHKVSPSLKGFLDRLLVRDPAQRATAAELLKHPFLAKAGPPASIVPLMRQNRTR
T4 sequence (Q14012 whole entry): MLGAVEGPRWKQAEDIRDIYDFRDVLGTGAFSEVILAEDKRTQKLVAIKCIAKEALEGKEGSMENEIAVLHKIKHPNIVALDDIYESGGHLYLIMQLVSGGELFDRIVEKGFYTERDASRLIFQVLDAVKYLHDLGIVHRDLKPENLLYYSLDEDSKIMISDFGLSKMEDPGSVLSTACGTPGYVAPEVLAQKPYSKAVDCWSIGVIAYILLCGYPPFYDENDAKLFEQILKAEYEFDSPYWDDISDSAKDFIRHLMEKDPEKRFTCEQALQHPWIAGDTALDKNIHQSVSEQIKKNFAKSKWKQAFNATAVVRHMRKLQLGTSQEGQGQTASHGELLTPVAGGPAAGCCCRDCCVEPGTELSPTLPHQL
T7 sequence (P45983 1-384 isoform P45983-2): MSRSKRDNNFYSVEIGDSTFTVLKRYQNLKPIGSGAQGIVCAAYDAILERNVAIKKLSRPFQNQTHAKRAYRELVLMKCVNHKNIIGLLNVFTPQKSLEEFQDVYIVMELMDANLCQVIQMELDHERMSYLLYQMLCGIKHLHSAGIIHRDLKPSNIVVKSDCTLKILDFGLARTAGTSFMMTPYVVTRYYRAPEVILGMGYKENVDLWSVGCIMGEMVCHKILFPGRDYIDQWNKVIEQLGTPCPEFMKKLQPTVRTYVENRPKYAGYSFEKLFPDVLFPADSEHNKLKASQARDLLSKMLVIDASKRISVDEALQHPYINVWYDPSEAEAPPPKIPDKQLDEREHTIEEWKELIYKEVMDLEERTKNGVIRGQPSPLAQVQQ

`O=C(NCCCNc1nc(Nc2cccnc2)ncc1C1CC1)c1cccs1` [Example 50, Thiophene-2-carboxylic acid {3-[5-cyclopropyl-2-(pyridin-3-ylamino)-pyrimidin-4-ylamino]-propyl}-amide]: the remaining activity at 1 µM came out at 109% at PKBa (setting [1]); 102% at PIM3 (setting [3]); 83% at SYK (setting [4]); 94% at CAMK1 (setting [5]); 75% on PAK4 (setting [6]); 93% on NEK2a (setting [7]). Moreover, the remaining activity at 1 µM was 94% on JNK1 (setting [8]) and 86% on SGK1 (setting [9]). Further, the remaining activity at 10 µM at PKBa (setting [2]) came out at 97%; on PIM3 (setting [3]), 50%; on SYK (setting [4]), 60%; on CAMK1 (setting [5]), 71%; at PAK4 (setting [6]), 35%; at NEK2a (setting [7]), 71%. The results for the remaining activity at 10 µM on JNK1 (setting [8]) and at SGK1 (setting [9]) were 87% and 57%, respectively.

For `O=C(NCCCNc1nc(Nc2cccc(F)c2)ncc1Br)C1CCC1` [Compound A, cyclobutanecarboxylic acid {3-[5-bromo-2-(3-fluoro-phenylamino)-pyrimidin-4-ylamino]-propyl}-amide, reference compound], the remaining activity at 10 µM at PKBa (setting [10]) was found to be 92%; at PIM3 (setting [12]), 21%; on SYK (setting [13]) it was 4%; on CAMK1 (setting [14]), 25%; at PAK4 (setting [15]), 6%; at NEK2a (setting [16]), 57%. The figures for the remaining activity at 10 µM on JNK1 (setting [17]) and on SGK1 (setting [18]) were 9% and 18%, respectively. Moreover, the remaining activity at 1 µM at PKBa (setting [11]) is 107%. In addition, the “residual kinase activity PIM3” value at PIM3 was 78%. At SYK, the “residual kinase activity SYK” value turned out to be 25%. The “residual kinase activity CAMK1” value on CAMK1 was 54%. In addition, the “residual kinase activity PAK4” value at PAK4 came to 32%. Besides, the “residual kinase activity NEK2a” value on NEK2a was determined as 95%. Besides, the “residual kinase activity JNK1” value at JNK1 is recorded as 46%. Besides, at SGK1, the “residual kinase activity SGK1” value is recorded as 59%.

Consider `O=C(NCCCNc1nc(Nc2cccc(F)c2)ncc1C1CC1)C1CCC1` [Example 23, Cyclobutanecarboxylic acid {3-[5-cyclopropyl-2-(3-fluoro-phenylamino)-pyrimidin-4-ylamino]-propyl}-amide], for which the remaining activity at 10 µM on PKBa (setting [10]) was 91%; at PKBa (setting [2]), 91%; on PIM3 (setting [12]), 37%; at PIM3 (setting [3]), 37%; at SYK (setting [13]), 46%; at SYK (setting [4]), 46%. For the same molecule, the remaining activity at 10 µM on CAMK1 (setting [14]) was 66%; at CAMK1 (setting [5]) it was 66%; at PAK4 (setting [15]), 31%; on PAK4 (setting [6]) it was 31%; at NEK2a (setting [16]), 65%; at NEK2a (setting [7]), 65%. Besides, the remaining activity at 10 µM on JNK1 (setting [17]) is 73%; on JNK1 (setting [8]) it was 73%; at SGK1 (setting [18]), 64%; on SGK1 (setting [9]) it was 64%. Further, the remaining activity at 1 µM is 100% at PKBa (setting [11]); 100% on PKBa (setting [1]); 73% on PIM3 (setting [3]); 87% at SYK (setting [4]); 77% on CAMK1 (setting [5]); 72% on PAK4 (setting [6]). Further, the remaining activity at 1 µM at NEK2a (setting [7]) came to 91%; on JNK1 (setting [8]), 91%; at SGK1 (setting [9]) it was 100%. Besides, on PIM3, the “residual kinase activity PIM3” value is listed as 73%. Besides, the “residual kinase activity SYK” value at SYK is 87%. Besides, on CAMK1, the “residual kinase activity CAMK1” value came to 77%. Further, the “residual kinase activity PAK4” value at PAK4 is 72%. The “residual kinase activity NEK2a” value at NEK2a is on record as 91%. The “residual kinase activity JNK1” value at JNK1 turned out to be 91%. Besides, the “residual kinase activity SGK1” value on SGK1 is recorded as 100%.

For the molecule `O=C(NCCCNc1nc(Nc2cccc(N3CCCC3=O)c2)ncc1C1CC1)c1cccs1` [Example 47, Thiophene-2-carboxylic acid (3-{5-cyclopropyl-2-[3-(2-oxo-pyrrolidin-1-yl)-phenylamino]-pyrimidin-4-ylamino}-propyl)-amide. Hydrochloride salt], the remaining activity at 1 µM was 101% on PKBa (setting [1]); 99% on PIM3 (setting [3]); 82% at SYK (setting [4]); 91% at CAMK1 (setting [5]); 80% on PAK4 (setting [6]); 104% at NEK2a (setting [7]). Also, the values for the remaining activity at 1 µM on JNK1 (setting [8]) and at SGK1 (setting [9]) were 92% and 71%, respectively. The remaining activity at 10 µM came to 90% on PKBa (setting [2]); 78% at PIM3 (setting [3]); 49% on SYK (setting [4]); 73% on CAMK1 (setting [5]); 57% on PAK4 (setting [6]); 79% on NEK2a (setting [7]). Besides, the remaining activity at 10 µM on JNK1 (setting [8]) came out at 86%; at SGK1 (setting [9]), 59%.
